What was measured:
[1] = tested on: 4T1-derived tumors; assay: 4T1 syngeneic tumor model; type: in vivo, Balb/c mice; conditions: FIG. 10; daily subcutaneous or intraperitoneal 8 mg/kg/mouse, starting day 3
Experimental: Eight- to 10-week-old female Balb/c mice were used for the 4T1 syngeneic tumor model. 4T1 cells (1×10^5 cells in 300 μl PBS 1×) were injected subcutaneously (s.c.) into the flank of mice, whose fur was shaved and depilated. Three groups of 8 mice each were implanted with 4T1. The first group received daily s.c. 300 μl PBS (control), the remaining groups were injected daily with compound 14 (8 mg/kg/mouse) s.c. or intraperitoneally (i.p.). Both compound 14 and PBS were administered starting on day 3. Mice were monitored over the time for weight loss and sacrificed at day 14. Tumors were photographed, and excised, and their mass calculated according to the following formula: ½×(short diameter)×(long diameter)×(height).

[2] = tested on: HCT-116 cells; assay: CFSE cell proliferation assay, HCT-116 cells; type: cell-based, human
Experimental: All reagents used in Examples 1-3 were from Sigma-Aldrich (Milan, Italy) unless specified. Compounds were dissolved as a 25 mM stock solution in culture medium, and the pH of the solution was adjusted to 7.4, if necessary, with NaOH. The human CRC cell lines, HCT-116 and HT-29 (expressing either wild-type or mutated p53 respectively), were maintained in McCoy's 5A supplemented with 10% fetal bovine serum (FBS), 1% penicillin/streptomycin, and 50 μg/ml gentamycin. The murine CRC cell line, CT26, was maintained in RPMI 1640 medium supplemented with 10% FBS and 1% penicillin/streptomycin.
For cell growth assays, serum-starved HCT-116, HT-29, and CT26 cells were plated in appropriate complete medium at 2×10^5 cells/ml/well in 6-well culture dishes and allowed to adhere overnight. Cells were then labeled with carboxyfluorescein diacetate succinimidyl ester (CFSE) (Invitrogen, Milan Italy) at 37° C. according to the manufacturer's instruction. After 30 minutes, the medium was removed and fresh media containing 0.05% bovine serum albumin (BSA), and increasing doses of 5-ASA or disclosed compounds were added. After 24 hours, cells were collected, washed twice with PBS 1×, and then incubated with 5 μg/ml of PI for 15 minutes, at 4° C. in the dark. CFSE and/or PI-positive cells were determined by flow cytometry (Becton Dickinson, FACSCalibur, Milan, Italy). To determine whether the negative effect of compound 14 (2-methoxy-5-amino-N-hydroxybenzamide) on proliferation was reversible, cells were cultured in the presence or absence of compound 14 (1.5 and 3 mM) for 24 hours (1st culture). Afterwards, cells were either left untreated or extensively washed and cultured with medium in the absence of compound 14 for additional 24 hours (2nd culture). The percentage of proliferating cells was then evaluated by flow cytometry.

COc1ccc(N)cc1C(=O)NO [compound 14, 2-methoxy-5-amino-N-hydroxybenzamide]
4T1-derived tumor mass in comparison to controls [1]: significant decrease | anti-proliferative effect (percentage of growth inhibition) ([2]; FIG. 1, CFSE-labeled HCT 116 cells, increasing doses): pronounced anti-proliferative effect | potency relative to 5-ASA in inhibiting CRC cell proliferation ([2]; FIG. 1, CFSE-labeled HCT 116 cells, increasing doses, 24 hours): about ten times more potent than 5-ASA | proliferation of HCT-116 cells ([2]; FIG. 2, graded doses): dose-dependently inhibited | time dependence of anti-proliferative effect ([2]; FIG. 3A, increasing doses for 24, 48, and 72 hours): time-dependent | reversibility of anti-proliferative effect ([2]; FIG. 3B, 1.5-3 mM for 24 hours, then washed and cultured 24 hours without compound): fully reversible

Source: patent publication US8501806B2, “Methods for preventing or reducing colon carcinogenesis” (Nogra Pharma Limited, priority 2008, dated 2013)
